The record followed here is ChEMBL document CHEMBL1201862, “PubChem BioAssay data set” (2004).

Holding throughout (assay): NCI tumour cell line growth inhibition, 48 h
The test system of assay [1] is A549.
The test system of assay [2] is TK-10.
For assay [3], the system named is 786-0.
The test system of assay [4] is A498.
In assay [5] the test system is SK-OV-3.
Assay [6] has as its system HL-60.
Assay [7] relates to K562.
The test system of assay [8] is COLO 205.
Assay [9] concerns SW-620.
Assay [10] has as its system U-251.
Assay [11] relates to CCRF-CEM.
Assay [12] concerns SK-MEL-5.
Assay [13] concerns IGROV-1.
The test system of assay [14] is NCI-H226.
Assay [15] relates to DU-145.
The test system of assay [16] is SK-MEL-28.
Assay [17] relates to ACHN.
The subject of assay [18] is SF-539.
For assay [19], the system named is HOP-62.
The test system of assay [20] is SN12C.

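How tested: cells in 96-well plates exposed to compound for 48 hours at five concentrations. The concentration for 50% growth inhibition is given as GI50.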 Activity calls are given as the source filed them. Rule as the data show it: active = GI50 up to about 1.1 µM and inactive = higher.

Take `O=C1C(Cl)=C(NCCO)C(=O)c2c(O)ccc(O)c21`: the GI50 in [1] was 1.87 µM (inactive); in assay [2], > 10 µM (inactive); in assay [3], 5.53 µM (inactive); in assay [4] it was 1.36 µM (inactive); in [5], > 10 µM (inactive); in assay [6] it was 2.6 µM (inactive). Further, the GI50 in [7] is 2.59 µM (inactive); in assay [8], 1.74 µM (inactive); in assay [9], 2.37 µM (inactive); in assay [10], 6.27 µM (inactive); in assay [11], 4.14 µM (inactive); in [12], 1.41 µM (inactive). Also, the GI50 is 2.49 µM (inactive) in assay [13]; > 10 µM (inactive) in assay [14]; 2.36 µM (inactive) in assay [15]; 1.92 µM (inactive) in assay [16]; 5.01 µM (inactive) in assay [17]; 2.52 µM (inactive) in [18]. The results for the GI50 in assay [19] and in assay [20] were 3.28 µM (inactive) and 2.56 µM (inactive), respectively.

On to `OCC1OC(n2cnc3c(SCc4ccccc4)ncnc32)C(O)C1O` (stereo not given), for which the GI50 in assay [1] is 26.3 µM (inactive); in assay [2], > 21.8 µM (inactive); in assay [3] it was 27.5 µM (inactive); in [4], 2.98 µM (inactive); in assay [5] it was > 89.3 µM (inactive); in assay [6] it was 1.21 µM (inactive). In addition, the GI50 in [7] was 3.15 µM (inactive); in assay [8], 14 µM (inactive); in assay [9], 21.6 µM (inactive); in [10] it was > 100 µM (inactive); in [11], 0.169 µM (active); in assay [12], > 100 µM (inactive). The GI50 is > 89.1 µM (inactive) in assay [13]; > 67.3 µM (inactive) in [14]; 5.35 µM (inactive) in assay [15]; > 100 µM (inactive) in assay [16]; 4.24 µM (inactive) in assay [17]; > 100 µM (inactive) in assay [18]. The GI50 in assay [19] is > 100 µM (inactive); in assay [20], 7.5 µM (inactive).

With `COc1c(-c2nc3ccc(N4CCN(C)CC4)cc3[nH]2)cc(OC)c2[nH]c(CO)nc12`, the GI50 in [1] was > 100 µM (inactive); in assay [2], > 100 µM (inactive); in [3] it was 90.8 µM (inactive); in [4], > 100 µM (inactive); in assay [5], > 100 µM (inactive); in assay [6], 14.1 µM (inactive). For the same molecule, the GI50 in assay [7] was > 100 µM (inactive); in assay [8] it was 82.4 µM (inactive); in assay [9] it was 74.8 µM (inactive); in assay [10], 74.8 µM (inactive); in assay [11], 13.3 µM (inactive); in assay [12], > 100 µM (inactive). In addition, the GI50 in assay [13] is > 100 µM (inactive); in [14], > 100 µM (inactive); in assay [15], 84.5 µM (inactive); in assay [16], > 100 µM (inactive); in [17] it was > 100 µM (inactive); in assay [18] it was > 100 µM (inactive). Besides, the values for the GI50 in [19] and in [20] were 92.9 µM (inactive) and 74.6 µM (inactive), respectively.

For `N=C(N)SCc1cccc2c(=O)cc(-c3ccccc3)oc12`, the GI50 in assay [1] is 7.62 µM (inactive); in assay [2], 7.57 µM (inactive); in assay [3], 3.9 µM (inactive); in [4] it was 9.27 µM (inactive); in assay [5] it was 12.8 µM (inactive); in [6], 3.18 µM (inactive). The GI50 in assay [7] was 5.35 µM (inactive); in assay [8] it was 3.78 µM (inactive); in assay [9], 4.37 µM (inactive); in [10], 7.66 µM (inactive); in assay [11], 3.87 µM (inactive); in [12] it was 11.1 µM (inactive). The GI50 in assay [13] is 6.32 µM (inactive); in assay [14], 15.9 µM (inactive); in assay [15] it was 4.93 µM (inactive); in assay [16], 4.43 µM (inactive); in assay [17], 3.53 µM (inactive); in [18], 7.26 µM (inactive). The figures for the GI50 in assay [19] and in [20] were 10.8 µM (inactive) and 6.19 µM (inactive), respectively.

As to `COc1cc(OC)c2c(c1OC)OCC(Cc1ccc(O)cc1)C2=O` (stereo not given), the GI50 in assay [1] is > 25 µM (inactive); in assay [2], > 25 µM (inactive); in assay [3] it was > 25 µM (inactive); in assay [4], > 25 µM (inactive); in [5], > 25 µM (inactive); in assay [6] it was 11.3 µM (inactive). Besides, the GI50 in [7] is > 25 µM (inactive); in [8], > 25 µM (inactive); in [9], > 25 µM (inactive); in [10], > 25 µM (inactive); in assay [11], > 25 µM (inactive); in [12], 19.8 µM (inactive). Also, the GI50 in assay [13], in assay [14], in assay [15], in assay [16], in [17] and in assay [18] was > 25 µM (inactive) throughout. For the same molecule, the GI50 in assay [19] and in assay [20] was > 25 µM (inactive) each time.

`CCOC(=O)Nc1nc2cc(Cn3cccc3)ccc2[nH]1`: the GI50 in [1] is 1.22 µM (inactive); in assay [2], 19.5 µM (inactive); in assay [3] it was 1.09 µM (active); in assay [4], 1.7 µM (inactive); in [5], 1.5 µM (inactive); in assay [6], 0.27 µM (active). The GI50 in [7] is 0.359 µM (active); in assay [8] it was 1.84 µM (inactive); in assay [9], 0.564 µM (active); in assay [10], 1.2 µM (inactive); in [11], 0.581 µM (active); in [12], 0.51 µM (active). The GI50 in [13] is 1.85 µM (inactive); in [14], 15.8 µM (inactive); in assay [15], 1.78 µM (inactive); in assay [16], 4.89 µM (inactive); in [17] it was 5.78 µM (inactive); in [18], 0.865 µM (active). Moreover, the GI50 in [19] was 1.36 µM (inactive); in assay [20], 2.33 µM (inactive).

With `Cc1ccc(/N=N/c2c(O)ccc3cc(S(=O)(=O)O)cc(S(=O)(=O)O)c23)cc1`, the GI50 in [1], in [2], in assay [3], in assay [4], in assay [5] and in [6] was > 100 µM (inactive) throughout. Further, the GI50 in [7], in assay [8], in assay [9], in assay [10], in assay [11] and in [12] was > 100 µM (inactive) each time. In addition, the GI50 in assay [13], in [14], in assay [15], in assay [16], in [17] and in assay [18] was > 100 µM (inactive) each time. For the same molecule, the GI50 in assay [19] and in assay [20] was > 100 µM (inactive) throughout.
